Here are results for eleven compounds from patent US20020045669A1, “Anti-arrhythmic composition and methods of treatment” (priority 2000, published 2002).

Series [1] relates to DOCA/saline pre-treated rats with isoproterenol-induced arrhythmia. Briefly: Arrhythmic reversal studies (established isoproterenol arrhythmia). Type of series: in vivo, rat. The note with it: i.v. bolus at one-half of the effective s.c. dose, five minutes after isoproterenol. The method, then:
The animals were implanted with a 25 mg pellet of DOCA and maintained on the 1% saline as their drinking fluid as discussed above. The animals were anesthetized with Avertin and prepared for the recording of blood pressure and the EKG. In addition, the animal's left jugular vein was also cannulated with PE-50 tubing. The tubings were filled with saline and exteriorized dorsally between the animal's shoulders. Isoproterenol was administered s.c. at a dose of 150 μg/kg and an arrhythmia was allowed to develop for five minutes. […] Continuous blood pressure, heart rate and EKG readings were obtained. Additional Avertin was given as needed to maintain anesthesia. The hearts of the animals were perfused with buffered formalin immediately after the onset of ventricular fibrillation or one hour after the administration of isoproterenol.
(§1) Two kinds of anti-arrhythmic experiments were carried out, both prophylaxis and reversal studies. DOCA-treated animals were either first given the test compounds s.c. followed twenty minutes later by isoproterenol (prevention studies) or isoproterenol followed by the test compound given intravenously after five minutes (reversal studies). The time frames were chosen based on two issues: previous experience with the pharmacokinetics of polyamine analogues and the time required for isoproterenol to induce cardiac abnormalities and death in DOCA-treated rodents.

The subject of series [2] is DOCA/saline pre-treated rats challenged with isoproterenol. Kind of series: Prevention of isoproterenol-induced arrhythmia and mortality in DOCA/saline pre-treated rats. The conditions noted are these: for % SURVIVAL / ARRHYTHMIA (number of animals): 20 min before isoproterenol 150 μg/kg s.c. Type of series: in vivo, rat. The method, then: Briefly, rats were anesthetized with sodium pentobarbital (55 mg/kg. i.p.), and a 25 mg pellet of desoxycorticosterone acetate (DOCA) was implanted s.c. in the axillary region. The rats were allowed to recover from the anesthetic and returned to their home cages. The animals were given commercial rat chow and a 1% solution of saline as their drinking fluid ad libitum. The animals were maintained on this regimen for approximately thirty days.
Twenty minutes later, the rats were challenged with a single s.c. dose of isoproterenol, 150 μg/kg. The animals were closely monitored for one hour and any obvious arrhythmic episodes or mortalities were recorded.
as §1

In series [3] the test system is mice exposed to deep chloroform anesthesia. Briefly: Chloroform anesthesia-induced cardiac arrhythmia (Lawson procedure). The format is in vivo. The note with it: 100 mg/kg i.p., thirty minutes before chloroform; observed 15 minutes; <2 of three = significant protection. The method, then:
In this procedure [Lawson, J. Pharmacol. Exer. Therap., Vol. 160, pages 22-31 (1968)], the test substance [diethylhomospermine (DEHSPM)] is administered i.p. (100 mg/kg) to a group of three mice thirty minutes before exposure to deep chloroform anesthesia and observed during the ensuing 15-minute period.

Another series has as its system normotensive rats. The conditions noted are these: earlier results; cited from earlier work.
Series [4] has as its system DOCA/saline pre-treated rats. Briefly: Evaluation of blood pressure, heart rate and EKG in DOCA/saline rats. The format is in vivo, rat. The conditions noted are these: continuous monitoring, compound given s.c. The method, then: Blood pressure and heart rate parameters, as well as an EKG, were evaluated for compounds displaying anti-arrhythmic properties. The animals were implanted with DOCA and maintained on 1% saline as their drinking fluid as discussed above. The animals were anesthetized with Avertin (tribromoethanol, 2.5%), 1 ml/100 g given i.p. and prepared for the recording of blood pressure and the EKG. To allow for the direct measurement of blood pressure, the animals's left carotid artery was cannulated with PE-50 tubing. The tubing was filled with saline and exteriorized dorsally between the animal's shoulders.
After the surgery was completed, the catheter in the carotid artery was connected to a blood pressure transducer (ADInstruments, Inc., Milford, Mass.). To allow for the recording of the EKG, 22 gauge needles were placed s.c. at the rat's left shoulder, right shoulder and left leg. The needles were then attached via alligator clips to a MacLab Bio Amplifier (ADInstruments, Inc., Milford, Mass.). […] A baseline blood pressure, heart rate and EKG were obtained, and the compound under investigation was administered s.c. Twenty minutes later, the animals were challenged with a single dose of isoproterenol, 150 μg/kg s.c. Continuous blood pressure, heart rate and EKG readings were obtained. […]

[5] abbreviates: DOCA/isoproterenol-treated rats, prophylaxis.

Molecules are shown by their SMILES. Entries after “also recorded” stand apart in the source; their conditions may differ.

With `CC(C)NCC(O)COc1cccc2ccccc12` (racemic) [Propranolol, d,l-propranolol], in series [1], the “EKG pattern after treatment in reversal experiment” value is given as “reverted to a more normal pattern”, the “evidence of ischemia in EKG in reversal experiment” value is “some evidence of ischemia” and the “survival in reversal experiment” value is given as “survived”.
Turning to `CCNCCCCCCCCCNCC` [DE(9), C2H5—NH—(CH2)9—NH—C2H5], in series [2] (setting [5]), the “effect on survival / activity in the model (in words)” value (shortened to “effect on survival / activity”) is reported as “no activity”. In series [2] (dose 115 μmol/kg s.c.), the “% SURVIVAL” value was 0% and the “ARRHYTHMIA (number of animals)” value worked out at 5.
On to `CCNCCCCNCCCCNCCCCNCC` [DEHSPM(4,4,4), diethylhomospermine], for which the “effect on survival / activity” value in series [2] (setting [5]) is recorded as “none of the three polyamine anti-metabolites tested in this model had any effects on the survival”. In series [2] (dose 115 μmol/kg s.c.), the “% SURVIVAL” value was determined as 0% and the “ARRHYTHMIA (number of animals)” value is 5. In addition, the “animals exhibiting cardiac arrhythmia (of three mice)” value in series [3] is reported as “one”. In addition, the “effect on blood pressure” value with normotensive rats is listed as “lower blood pressure”.
As to `CCNCCCNCCCNCCCNCC` [DENSPM(3,3,3), diethylnorspermine], the “effect on survival / activity” value in series [2] (setting [5]) is reported as “none of the three polyamine anti-metabolites tested in this model had any effects on the survival”. Moreover, in series [2] (dose 231 μmol/kg s.c.), the “% SURVIVAL” value was found to be 0% and the “ARRHYTHMIA (number of animals)” value is recorded as 5. In addition, the “effect on blood pressure” value in the series on normotensive rats was “lower blood pressure”.
Take `CCNCCCNCCCCNCCCNCC` [DESPM(3,4,3), diethylspermine]: in series [2] (setting [5]), the “effect on survival / activity” value was “none of the three polyamine anti-metabolites tested in this model had any effects on the survival”. For the same compound, in series [2] (dose 115 μmol/kg s.c.), the “% SURVIVAL” value was 0% and the “ARRHYTHMIA (number of animals)” value was found to be 5.
For `FC(F)(F)CNCCCNCCCCNCCCNCC(F)(F)F` [FDESPM, Di-β,β,β-trifluoroethylspermine], the “anti-arrhythmic properties (in words)” value in series [2] (setting [5]) is recorded as “some anti-arrhythmic prophylactic behavior”. Besides, in series [2] (DOCA/isoproterenol-treated rats, prophylaxis, dose not given), the animals surviving worked out at 40%. Moreover, in series [2] (dose 115 μmol/kg s.c.), the “% SURVIVAL” value amounted to 40% and the “ARRHYTHMIA (number of animals)” value is on record as 7.
On to `C(CNC1CCNCC1)CNC1CCNCC1` [PIP(3,3,3)], for which, in series [2] (setting [5]), the “effect on survival / activity” value is “nor was it found to be active in this model”. In series [2] (dose 115 μmol/kg s.c.), the “% SURVIVAL” value is listed as 0% and the “ARRHYTHMIA (number of animals)” value worked out at 5.
On to `c1cc(NCCCNc2ccncc2)ccn1` [PYR(3,3,3)], for which the “anti-arrhythmic properties (in words)” value in series [2] (setting [5]) is “presented with anti-arrhythmic properties; also recorded: performed best”. Further, the “% SURVIVAL” value in series [2] (dose 14 μmol/kg s.c.) is on record as 40%; in series [2] (dose 28 μmol/kg s.c.), 40%; in series [2] (dose 59 μmol/kg s.c.), 60%; in series [2] (dose 115 μmol/kg s.c.), 100%. Moreover, the “ARRHYTHMIA (number of animals)” value in series [2] (dose 14 μmol/kg s.c.) is 5; in series [2] (dose 28 μmol/kg s.c.), 5; in series [2] (dose 59 μmol/kg s.c.), 4; in series [2] (dose 115 μmol/kg s.c.) it was 2. In series [4], the “effects on blood pressure and heart rate” value is “No appreciable effects on blood pressure and heart rate”. The “EKG pattern after treatment in reversal experiment” value in series [1] is “reverted to a normal appearance”. In addition, the “evidence of ischemia in EKG in reversal experiment” value in series [1] is “little to no evidence of ischemia”.
Take `c1cc(NCCCCNc2ccncc2)ccn1` [PYR(3,4,3)]: the “anti-arrhythmic properties (in words)” value in series [2] (setting [5]) is given as “presented with anti-arrhythmic properties”. In addition, the results for the “% SURVIVAL” value in series [2] (dose 59 μmol/kg s.c.), in series [2] (dose 115 μmol/kg s.c.) and in series [2] (dose 231 μmol/kg s.c.) were 60%, 60% and 80%, respectively. Besides, the “ARRHYTHMIA (number of animals)” value in series [2] (dose 59 μmol/kg s.c.), in series [2] (dose 115 μmol/kg s.c.) and in series [2] (dose 231 μmol/kg s.c.) was 2 in each case.
For the compound `c1cc(CNCCCCNCc2ccncc2)ccn1` [PYR(4,4,4)], the “anti-arrhythmic properties (in words)” value in series [2] (setting [5]) was “presented with anti-arrhythmic properties”. Further, in series [2] (dose 115 μmol/kg s.c.), the “% SURVIVAL” value was found to be 0% and the “ARRHYTHMIA (number of animals)” value is 5. For the same compound, in series [2] (dose 231 μmol/kg s.c.), the “% SURVIVAL” value is reported as 40% and the “ARRHYTHMIA (number of animals)” value amounted to 2.
As to `NCCCCN` [Putrescine(4), Putrescine, reference compound], in series [2] (setting [5]), the “effect on survival / activity” value is listed as “no effect on survival”. Further, the “% SURVIVAL” value in series [2] (dose 115 μmol/kg s.c.), in series [2] (dose 1240 μmol/kg s.c.) and in series [2] (dose 1861 μmol/kg s.c.) was 0% throughout. Besides, the “ARRHYTHMIA (number of animals)” value in series [2] (dose 115 μmol/kg s.c.), in series [2] (dose 1240 μmol/kg s.c.) and in series [2] (dose 1861 μmol/kg s.c.) was 5 each time.
